Test results as given in US20220213092A1, “BICYCLIC PYRAZOLE BRUTON'S TYROSINE KINASE INHIBITORS” (AbbVie Inc., priority 2020, published 2022).

Tests used:
[1] = biological target: T1, Full length BTK enzyme (human BTK residues 2-659) (Homo sapiens, UniProt Q06187); assay: BTK MSA with full length BTK enzyme, used for Examples 50, 51, 62 and 63; format: biochemical; settings: Examples 50, 51, 62 and 63: 1 mM ATP, 0.6 nM full length BTK enzyme, 3 hours at room temperature
T1 construct: 6His (N); Flag (N); TEV cleavage site (N); Serine (single linker residue before BTK residue 2) (N); made in house; host or cells: baculovirus (pFastBac vector)
Protocol: Kinase activities for Examples 50, 51, 62 and 63 were measured in vitro using the following electrophoretic mobility shift assay (MSA). The kinase reactions were assembled in a total volume of 20 μL in 384 well plates. To each well, 20 nL test compound, or control, in 100% dimethyl sulfoxide was spotted using Echo®, a liquid dispensing instrument (Labcyte, Indianapolis, Ind.). To each well was added: 12 μL of 1.67× Full length BTK enzyme in Master Buffer (Master Buffer components: 20 mM HEPES pH 7.4, 10 mM MgCl2, 1 mM DTT, 0.1 mM sodium orthovanadate, 10 mM beta-glycerophosphate, and 0.0075% w/v Triton x-100). Full length BTK enzyme was 6His-Flag-(TEV)-S[BTK(hu) (2-659)]*BEV, pFastBac*. [Note: this is a description of the exact amino acid sequence of the expressed BTK construct from N- to C-terminus: 6Histidines, Flag tag sequence, TEV cleavage site, Serine, human BTK residues 2-659; and BEV=expressed in baculovirus, pFastBac is the expression vector used].
Enzyme and compound/inhibitor were optionally pre-incubated. To each well was added: 8 μL of 2.5×ATP and substrate in 1× Master Buffer (1× Master Buffer as described above). The plate was incubated at room temperature for 3 hours. The reaction was terminated by adding 30 μL of 1.67× Stop Buffer (Stop Buffer components 10 mM EDTA in water), to each well. The final reaction mixture was as follows: 20 mM HEPES, pH 7.4; 0.0075% Triton X-100; 1 mM DTT; 10 mM MgCl2; 0.1 mM sodium orthovanadate; 10 mM beta-glycerophosphate; 0.1% dimethyl sulfoxide (from compound); 1 mM ATP; 1 μM (OG488-SEQ ID NO. 2-NH2) peptide substrate; and 0.6 nM BTK enzyme. […] The kinase activity for the kinases in Table 3 were measured at 3 hours incubation time, except that in the case of MAP2K1 and MAP2K2 assay, pre-activation of ERK was done for 30 min with 6 μM of ATP, and then the detection of activated ERK in the presence of compounds was done after 60 minutes of incubation.
The terminated reactions were analyzed using a 12 channel LABCHIP® 3000 microfluidic detection instrument (available from Caliper Life Sciences, Waltham, Mass.). […] As substrate and product peptides were separated, two peaks of fluorescence were observed. Change in the relative fluorescence intensity of the substrate and product peaks was the parameter measured, reflecting enzyme activity. […] Capillary electrophoregrams (RDA acquisition files) were analyzed using HTS Well Analyzer software (available from Caliper Life Sciences, Waltham, Mass.).
Activity in each sample was determined as the product to sum ratio (PSR): P/(S+P), where P was the peak height of the product peptide and S was the peak height of the substrate peptide. For each compound, enzyme activity was measured at various concentrations (12 concentrations of compound spaced by 3× dilution intervals). […]

BTK = biological target: T2, BTK (Homo sapiens, UniProt Q06187); assay: BTK kinase electrophoretic mobility shift assay (MSA); format: biochemical; settings: 50 μM ATP, 0.5 nM BTK enzyme (Nanosyn-293HEK, WT), 3 hours at 25° C.; all examples except 50, 51, 62 and 63; read-out: BTK IC50
T2 construct: purchased Nanosyn, Santa Clara, Calif; host or cells: 293HEK

CYP3A4 = CYP3A4 induction assay (CYP 3A4 mRNA by qPCR in cryopreserved human hepatocytes); format: in vitro ADME; settings: CYP3A4 mRNA fold change vs vehicle, 10 μM compound
Protocol: CYP induction was evaluated in vitro by determining the expression levels of CYP 3A4 mRNA using the qPCR (quantitative polymerase chain reaction) assay. On day one, cryopreserved human hepatocytes were thawed in prewarmed (37° C.) thawing medium (cryopreserved hepatocyte recovery medium, Gibco™ CM 7000; Thermo Fisher Scientific), centrifuged (1000 g for 10 minutes) and resuspended in plating medium (Gibco™ CM3000—Williams Medium E supplemented with hepatocytes plating supplement pak-serum containing; Thermo Fisher Scientific). Cells were counted by trypan blue exclusion using a hemocytometer and adjusted to a cell density of […]. Thereafter, […] of cell suspension was aliquoted per well in a 96-well plate, resulting in 60,000 cells/well. Plates were shaken in the north-south and east-west direction during plating. Plated cells were incubated at 37° C./5% CO2 in a humidified cell culture incubator for 4-6 hours. During this time, incubation medium (Gibco™ CM4000, cell maintenance supplement pack; Thermo Fisher Scientific) was mixed with Gibco™ Geltrex™ (Thermo Fischer Scientific) at the appropriate Geltrex™ protein concentration. Following recovery, medium was removed from cells and replaced with freshly prepared incubation medium. Cells were incubated overnight in a cell culture incubator (37° C./5% CO2).
The next day the incubation medium was prepared by combining the hepatocyte maintenance supplement pack with Williams medium E. The medium was warmed to 37° C. 1000× dimethyl sulfoxide compound stocks were prepared to the desired concentrations. 10 mM compound stocks in dimethyl sulfoxide were diluted (1 μL to 1 mL CM4000; final concentration=10 μM). Overlay medium was aspirated and […] dose solution added to the desired labeled 96 well plate. Cells were returned to the humidified incubator overnight (37° C./5% CO2).
On day 3, incubation medium was warmed to 37° C., and the same process for compound preparation repeated as in day 2, i.e. 1000× dimethyl sulfoxide compound stocks were prepared to the desired concentration, diluted (1:1000) in warm incubation medium, and this freshly prepared medium was used to replace treatment medium. Cells were returned to the humidified incubator (37° C./5% CO2) overnight.
On day 4, RNA isolation was performed. Prior to RNA isolation, cell viability was assessed using presto blue reagent. 10× dilution of PrestoBlue™ reagent (Thermo Fisher Scientific) was prepared by mixing 1.4 mL PrestoBlue™ with 12.6 mL incubation medium. Medium was aspirated from cells, and 100 μL of cell viability medium (10× dilution of PrestoBlue™ reagent) added and incubated for 17 minutes. Cell viability was determined by measuring absorbance using a microplate reader (Spark® 10M Tecan Life Sciences). After this measurement, media was aspirated using a multichannel aspirator and a glass pipet to completely aspirate from each well. Plates were stored or immediately used for mRNA isolation. All surfaces were cleaned using RNase away. 2× Lysis buffer was well mixed after incubation at ambient temperature. Fresh lysis buffer was prepared by mixing 0.125 μL of 0.5 mM DTT with 4.875 μL 2× lysis buffer. 1× lysis buffer containing DTT was then prepared by adding 5 μL dilution buffer to the 2× lysis buffer and mixing thoroughly. Thereafter, cell lysates were prepared by adding 1× lysis buffer to each sample well (96-well plate). Samples were incubated for 3-6 minutes at ambient temperature while shaking (350-400 rpm) to lyse the cells. Cells were scrapped with tips, and cell lysate (80 μL) was transferred to each well of the mRNA Catcher PLUS™ plate (Thermo Fisher Scientific). mRNA Catcher PLUS™ plate containing samples was covered with adhesive plastic film plate cover and incubated at ambient temperature for 45-60 minutes for RNA hybridization.
After hybridization, lysate was aspirated from the cells. […]

[2] = biological target: T3, Phosphorylation of Y223 of BTK (Homo sapiens, UniProt Q06187); assay: Whole blood compound screening, phosphorylation of Y223 site of BTK (MSD assay); format: cell-based; settings: healthy human whole blood, 2 hours at 37° C., 3 separate donors; read-out: WB BTK-pY223 EC50
T3 construct: host or cells: healthy human whole blood, 3 donors
How it was run: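 Heparinized human whole blood from 3 donors treated 2 h at 37 °C with compounds (8 points, top 10 μM, 1:4 dilution, 0.2% DMSO), then lysed. BTK pY223 quantified by MSD sandwich immunoassay (anti-BTK capture, anti-pY223 detection); EC50 from concentration response.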

T1 sequence (Q06187 2-659): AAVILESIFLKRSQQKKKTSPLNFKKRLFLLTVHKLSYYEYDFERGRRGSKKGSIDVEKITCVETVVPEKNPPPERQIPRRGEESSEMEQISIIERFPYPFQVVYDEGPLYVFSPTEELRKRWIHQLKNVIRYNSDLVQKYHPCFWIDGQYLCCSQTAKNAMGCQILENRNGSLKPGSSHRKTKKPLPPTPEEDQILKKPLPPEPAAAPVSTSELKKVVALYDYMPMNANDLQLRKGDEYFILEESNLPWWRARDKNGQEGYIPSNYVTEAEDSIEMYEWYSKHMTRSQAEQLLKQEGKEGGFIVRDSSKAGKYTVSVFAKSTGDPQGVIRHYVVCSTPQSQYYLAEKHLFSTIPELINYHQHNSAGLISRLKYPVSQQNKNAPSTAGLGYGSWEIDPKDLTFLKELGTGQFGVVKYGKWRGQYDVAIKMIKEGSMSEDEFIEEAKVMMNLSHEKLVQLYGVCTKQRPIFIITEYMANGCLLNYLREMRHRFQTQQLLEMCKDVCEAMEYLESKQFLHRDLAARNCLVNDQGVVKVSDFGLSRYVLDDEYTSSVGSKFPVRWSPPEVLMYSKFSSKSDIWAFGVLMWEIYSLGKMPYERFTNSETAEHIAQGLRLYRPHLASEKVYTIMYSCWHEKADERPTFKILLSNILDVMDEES
T2 sequence (Q06187 whole entry): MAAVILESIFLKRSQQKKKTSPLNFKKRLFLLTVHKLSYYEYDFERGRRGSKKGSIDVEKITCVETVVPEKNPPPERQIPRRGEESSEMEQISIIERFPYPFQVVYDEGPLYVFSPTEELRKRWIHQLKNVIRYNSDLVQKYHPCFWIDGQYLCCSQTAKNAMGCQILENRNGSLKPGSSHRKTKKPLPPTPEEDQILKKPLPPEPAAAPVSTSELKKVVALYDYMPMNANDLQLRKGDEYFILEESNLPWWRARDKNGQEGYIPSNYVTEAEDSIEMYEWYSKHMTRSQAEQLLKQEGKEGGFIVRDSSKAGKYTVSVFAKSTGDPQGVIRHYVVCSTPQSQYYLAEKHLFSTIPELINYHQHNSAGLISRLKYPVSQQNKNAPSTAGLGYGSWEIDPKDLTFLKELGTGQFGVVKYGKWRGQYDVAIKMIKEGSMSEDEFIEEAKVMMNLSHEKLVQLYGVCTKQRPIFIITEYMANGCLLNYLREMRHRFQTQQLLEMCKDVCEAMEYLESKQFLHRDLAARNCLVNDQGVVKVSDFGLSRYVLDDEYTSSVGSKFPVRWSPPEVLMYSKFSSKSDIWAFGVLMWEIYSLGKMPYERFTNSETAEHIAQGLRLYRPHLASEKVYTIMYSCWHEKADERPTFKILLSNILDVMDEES
T3 sequence (Q06187 whole entry): as above

COC(=O)/C=C/C(=O)N1CCN(C2CCNc3c2nn(-c2ccc(Oc4ccccc4)cc2)c3C(N)=O)CC1 (stereo not drawn) [Example 51, methyl (2E)-4-{4-[3-carbamoyl-2-(4-phenoxyphenyl)-4,5,6,7-tetrahydro-2H-pyrazolo[4,3-b]pyridin-7-yl]piperazin-1-yl}-4-oxobut-2-enoate]
IC50 [1]: 507 nM

CCO/C=C/C(=O)N1CCN([C@@H]2CCNc3c2nn(-c2ccc(Oc4ccccc4)cc2)c3C(N)=O)CC1 [Example 50, (7R)-7-{4-[(2E)-3-ethoxyprop-2-enoyl]piperazin-1-yl}-2-(4-phenoxyphenyl)-4,5,6,7-tetrahydro-2H-pyrazolo[4,3-b]pyridine-3-carboxamide]
IC50 [1]: 38.6 nM

C=CC(=O)N1C2CC1CN(C1CCNc3c1nn(-c1ccc(Oc4ccccc4)cc1)c3C(N)=O)C2 (stereo not drawn) [Example 45, 2-(4-phenoxyphenyl)-7-[6-(prop-2-enoyl)-3,6-diazabicyclo[3.1.1]heptan-3-yl]-4,5,6,7-tetrahydro-2H-pyrazolo[4,3-b]pyridine-3-carboxamide]
IC50 (BTK): 2.33 nM | CYP3A4 Ind. fold (CYP3A4): 25.40 fold

C=CC(=O)N1CC(N2CCNc3c2nn(-c2ccc(Oc4cccc(F)c4)cc2)c3C(N)=O)C1 [Example 62, 2-[4-(3-fluorophenoxy)phenyl]-7-[1-(prop-2-enoyl)azetidin-3-yl]-4,5,6,7-tetrahydro-2H-pyrazolo[3,4-b]pyrazine-3-carboxamide]
EC50 [2]: 7.75 nM | IC50 [1]: 6.2 nM

C=CC(=O)N1CCN([C@H]2CCNc3c2nn(-c2ccc(Oc4cc(F)cc(F)c4)cc2)c3C(N)=O)CC1 [Example 59, (7S)-2-[4-(3,5-difluorophenoxy)phenyl]-7-[4-(prop-2-enoyl)piperazin-1-yl]-4,5,6,7-tetrahydro-2H-pyrazolo[4,3-b]pyridine-3-carboxamide]
IC50 (BTK): 2.17 nM | EC50 [2]: 117 nM | CYP3A4 Ind. fold (CYP3A4): 0.85 fold

C=CC(=O)N1CCN([C@@H]2CCNc3c2nn(-c2ccc(Oc4cc(F)cc(F)c4)cc2)c3C(N)=O)CC1 [Example 58, (7R)-2-[4-(3,5-difluorophenoxy)phenyl]-7-[4-(prop-2-enoyl)piperazin-1-yl]-4,5,6,7-tetrahydro-2H-pyrazolo[4,3-b]pyridine-3-carboxamide]
IC50 (BTK): 77.5 nM | CYP3A4 Ind. fold (CYP3A4): 1.58 fold

C=CC(=O)N1CCN(C2CCNc3c2nn(-c2ccc(Oc4cccc(F)c4)cc2)c3C(N)=O)CC1 (stereo not drawn) [Example 57, 2-[4-(3-fluorophenoxy)phenyl]-7-[4-(prop-2-enoyl)piperazin-1-yl]-4,5,6,7-tetrahydro-2H-pyrazolo[4,3-b]pyridine-3-carboxamide]
IC50 (BTK): 1.76 nM | EC50 [2]: 85.9 nM

C=CC(=O)N1CCC(C2CCNc3c2nn(-c2ccc(Oc4cccc(C)c4)cc2)c3C(N)=O)CC1 (stereo not drawn) [Example 24, 2-[4-(3-methylphenoxy)phenyl]-7-[1-(prop-2-enoyl)piperidin-4-yl]-4,5,6,7-tetrahydro-2H-pyrazolo[4,3-b]pyridine-3-carboxamide]
IC50 (BTK): 0.735 nM | EC50 [2]: 92.9 nM

C=CC(=O)N1CC(N2CCNc3c2nn(-c2ccc(Oc4ccc(F)c(F)c4)cc2)c3C(N)=O)C1 [Example 63, 2-[4-(3,4-difluorophenoxy)phenyl]-7-[1-(prop-2-enoyl)azetidin-3-yl]-4,5,6,7-tetrahydro-2H-pyrazolo[3,4-b]pyrazine-3-carboxamide]
EC50 [2]: 19.4 nM | IC50 [1]: 20.3 nM

C=CC(=O)N1CCN([C@@H]2CCNc3c2nn(-c2ccc(Oc4cccc(F)c4F)cc2)c3C(N)=O)CC1 [Example 77, (7R)-2-[4-(2,3-difluorophenoxy)phenyl]-7-[4-(prop-2-enoyl)piperazin-1-yl]-4,5,6,7-tetrahydro-2H-pyrazolo[4,3-b]pyridine-3-carboxamide]
IC50 (BTK): 0.533 nM | EC50 [2]: 31.5 nM

C=CC(=O)N1[C@@H]2CC[C@H]1CN(C1CCNc3c1nn(-c1ccc(Oc4ccccc4)cc1)c3C(N)=O)C2 (stereo partly drawn) [Example 35, 2-(4-phenoxyphenyl)-7-[(1R,5S)-8-(prop-2-enoyl)-3,8-diazabicyclo[3.2.1]octan-3-yl]-4,5,6,7-tetrahydro-2H-pyrazolo[4,3-b]pyridine-3-carboxamide]
IC50 (BTK): 0.884 nM | EC50 [2]: 128 nM
